Literature values in paper PMC4067310, “From Pan-Reactive KV7 Channel Opener to Subtype Selective Opener/Inhibitor by Addition of a Methyl Group” (PLoS ONE, 2014).
Where a chain is given by its changes, count along the chain named.

Assays:
[1] = molecular target: T1, KV7.4 (Homo sapiens, UniProt P56696); set-up: method as in PMID 20011514; conditions: +40 mV; cited from earlier work
T1 construct: expressed in transfected cells; host or cells: Xenopus laevis oocytes injected with cRNA (pGEM-HE vector)
T1 sequence (P56696 1-695): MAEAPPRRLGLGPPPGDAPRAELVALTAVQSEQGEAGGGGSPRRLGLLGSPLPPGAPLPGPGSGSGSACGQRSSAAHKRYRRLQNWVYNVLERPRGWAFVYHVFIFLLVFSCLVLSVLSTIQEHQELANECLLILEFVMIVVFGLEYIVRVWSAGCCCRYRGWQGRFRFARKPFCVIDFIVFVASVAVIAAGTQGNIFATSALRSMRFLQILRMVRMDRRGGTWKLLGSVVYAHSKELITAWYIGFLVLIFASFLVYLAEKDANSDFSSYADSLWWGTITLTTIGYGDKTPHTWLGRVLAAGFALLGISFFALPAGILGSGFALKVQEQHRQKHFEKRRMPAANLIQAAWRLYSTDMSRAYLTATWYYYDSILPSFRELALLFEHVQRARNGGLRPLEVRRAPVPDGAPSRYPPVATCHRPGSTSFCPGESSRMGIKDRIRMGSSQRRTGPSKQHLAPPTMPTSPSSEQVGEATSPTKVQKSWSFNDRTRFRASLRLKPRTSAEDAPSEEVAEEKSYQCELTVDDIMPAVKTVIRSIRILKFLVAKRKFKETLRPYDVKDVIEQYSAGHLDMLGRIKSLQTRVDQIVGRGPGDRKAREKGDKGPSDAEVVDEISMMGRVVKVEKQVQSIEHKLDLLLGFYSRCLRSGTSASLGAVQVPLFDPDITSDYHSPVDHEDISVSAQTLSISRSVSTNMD

[2] = molecular target: T2, KV7.2-W236L (Homo sapiens, UniProt O43526, W236L); set-up: method as in PMID 20011514; conditions: all activating effects lost; cited from earlier work
T2 construct: expressed in transfected cells; host or cells: Xenopus laevis oocytes injected with cRNA (pGEM-HE vector)

[3] = molecular target: T3, KV7.4-W242L (Homo sapiens, UniProt P56696, W242L); conditions: cited from earlier work
T3 construct: expressed in transfected cells; host or cells: Xenopus laevis oocytes injected with cRNA (pGEM-HE vector)
T3 sequence (P56696 1-695 W242L): T1 sequence (P56696 1-695) with W242L

T2 sequence (O43526 whole entry W236L): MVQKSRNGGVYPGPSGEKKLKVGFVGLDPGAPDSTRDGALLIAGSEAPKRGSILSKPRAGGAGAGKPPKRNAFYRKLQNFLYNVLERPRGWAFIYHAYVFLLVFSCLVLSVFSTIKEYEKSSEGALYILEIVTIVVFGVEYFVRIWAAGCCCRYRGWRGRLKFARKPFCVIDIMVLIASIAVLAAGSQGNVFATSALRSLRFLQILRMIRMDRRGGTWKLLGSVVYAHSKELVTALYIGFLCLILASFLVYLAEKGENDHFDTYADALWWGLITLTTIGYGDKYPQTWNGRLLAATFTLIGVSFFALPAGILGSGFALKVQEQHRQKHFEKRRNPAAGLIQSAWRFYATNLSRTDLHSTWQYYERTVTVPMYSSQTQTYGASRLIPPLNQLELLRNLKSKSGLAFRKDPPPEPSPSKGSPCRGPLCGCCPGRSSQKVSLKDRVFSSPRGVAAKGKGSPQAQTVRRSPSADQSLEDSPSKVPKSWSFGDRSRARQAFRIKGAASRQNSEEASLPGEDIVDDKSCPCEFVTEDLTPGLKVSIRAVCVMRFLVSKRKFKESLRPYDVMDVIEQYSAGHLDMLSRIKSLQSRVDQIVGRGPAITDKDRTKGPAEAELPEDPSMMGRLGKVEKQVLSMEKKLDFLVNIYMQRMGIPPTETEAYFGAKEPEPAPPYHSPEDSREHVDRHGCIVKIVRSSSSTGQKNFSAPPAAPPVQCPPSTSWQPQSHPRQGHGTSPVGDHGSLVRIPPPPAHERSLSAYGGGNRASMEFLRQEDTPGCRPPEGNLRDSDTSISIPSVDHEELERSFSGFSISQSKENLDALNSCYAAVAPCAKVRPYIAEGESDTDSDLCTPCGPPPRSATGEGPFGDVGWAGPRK

SMILES: C[C@H](NC(=O)/C=C/c1ccccc1F)c1ccc2c(c1)N(CC1CC1)CCO2 [(S)-2]
- efficacy, current amplitude % of control [1]: 1927 % of control
- effect on KV7.2-W236L [2]: purely inhibitory
- effect on KV7.4-W242L [3]: fully insensitive
